In ChEMBL document CHEMBL3286290, “In vitro screening of pentamidine analogs against bacterial and fungal strains” (Bioorg Med Chem Lett, 2014):

Assays:
Micrococcus luteus [1] = assay: Antibacterial activity against Micrococcus luteus ATCC 9341 assessed as growth inhibition by M7-A6 method; assay type: functional
Micrococcus luteus [2] = assay: Antibacterial activity against Micrococcus luteus ATCC 10240 assessed as growth inhibition by M7-A6 method; assay type: functional
Bacillus subtilis = assay: Antibacterial activity against Bacillus subtilis ATCC 6633 assessed as growth inhibition by M7-A6 method; assay type: functional
Bacillus cereus = assay: Antibacterial activity against Bacillus cereus ATCC 11778 assessed as growth inhibition by M7-A6 method; assay type: functional
Staphylococcus aureus [3] = assay: Antibacterial activity against Staphylococcus aureus ATCC 6538 assessed as growth inhibition by M7-A6 method; assay type: functional
Staphylococcus aureus [4] = assay: Antibacterial activity against Staphylococcus aureus ATCC 6538P assessed as growth inhibition by M7-A6 method; assay type: functional
Escherichia coli = assay: Antibacterial activity against Escherichia coli ATCC 8739 assessed as growth inhibition by M7-A6 method; assay type: functional
Pseudomonas aeruginosa [5] = assay: Antibacterial activity against Pseudomonas aeruginosa ATCC 15442 assessed as growth inhibition by M7-A6 method; assay type: functional
Pseudomonas aeruginosa [6] = assay: Antibacterial activity against Pseudomonas aeruginosa ATCC 9027 assessed as growth inhibition by M7-A6 method; assay type: functional
Candida albicans [7] = assay: Antifungal activity against Candida albicans ATCC 10231 assessed as growth inhibition by M7-A6 method; assay type: functional
Candida albicans [8] = assay: Antifungal activity against Candida albicans ATCC 2091 assessed as growth inhibition by M7-A6 method; assay type: functional
Candida parapsilosis = assay: Antifungal activity against Candida parapsilosis ATCC 22019 assessed as growth inhibition by M7-A6 method; assay type: functional; settings: Lodderomyces parapsilosis
Aspergillus brasiliensis = assay: Antifungal activity against Aspergillus brasiliensis ATCC 16404 assessed as growth inhibition by M7-A6 method; assay type: functional
Saccharomyces cerevisiae = assay: Antifungal activity against Saccharomyces cerevisiae ATCC 9763 assessed as growth inhibition by M7-A6 method; assay type: functional
Staphylococcus aureus [9] = assay: Antibacterial activity against erythromycin, amikacin, clindamycin, ciprofloxacin, methicillin-resistant Staphylococcus aureus 15K/11 assessed as growth inhibition by M7-A6 method; assay type: functional
Staphylococcus aureus [10] = assay: Antibacterial activity against penicillin, erythromycin, amikacin, clindamycin, ciprofloxacin, methicillin-resistant Staphylococcus aureus 495/11 assessed as growth inhibition by M7-A6 method; assay type: functional
Staphylococcus aureus [11] = assay: Antibacterial activity against penicillin, erythromycin, amikacin, clindamycin, ciprofloxacin, methicillin-resistant Staphylococcus aureus 572/12 assessed as growth inhibition by M7-A6 method; assay type: functional
Staphylococcus aureus [12] = assay: Antibacterial activity against penicillin, erythromycin, clindamycin, ciprofloxacin, methicillin-resistant Staphylococcus aureus 19K/11 assessed as growth inhibition by M7-A6 method; assay type: functional
Staphylococcus aureus [13] = assay: Antibacterial activity against penicillin, erythromycin, amikacin, clindamycin, ciprofloxacin, methicillin-resistant Staphylococcus aureus 573/12 assessed as growth inhibition by M7-A6 method; assay type: functional
A549 [14] = assay: Cytotoxicity against human A549 cells assessed as inhibition of cell viability after 48 hrs by MTT assay; assay type: cell-based; settings: A549, 48 h
A549 [15] = assay: Cytotoxicity against human A549 cells assessed as inhibition of cell viability after 72 hrs by MTT assay; assay type: cell-based; settings: A549, 72 h
HeLa [16] = assay: Cytotoxicity against human HeLa cells assessed as inhibition of cell viability after 48 hrs by MTT assay; assay type: cell-based
HeLa [17] = assay: Cytotoxicity against human HeLa cells assessed as inhibition of cell viability after 72 hrs by MTT assay; assay type: cell-based
[18] = Cytotoxicity against human A549 cells assessed as cell viability at 200 ug/ml after 48 hrs by MTT assay; assay type: cell-based; settings: read-out: Activity
[19] = Cytotoxicity against human A549 cells assessed as cell viability at 100 ug/ml after 48 hrs by MTT assay; assay type: cell-based; settings: read-out: Activity
[20] = Cytotoxicity against human A549 cells assessed as cell viability at 50 ug/ml after 48 hrs by MTT assay; assay type: cell-based; settings: read-out: Activity
[21] = Cytotoxicity against human A549 cells assessed as cell viability at 10 ug/ml after 48 hrs by MTT assay; assay type: cell-based; settings: read-out: Activity
[22] = Cytotoxicity against human A549 cells assessed as cell viability at 200 ug/ml after 72 hrs by MTT assay; assay type: cell-based; settings: read-out: Activity
[23] = Cytotoxicity against human A549 cells assessed as cell viability at 100 ug/ml after 72 hrs by MTT assay; assay type: cell-based; settings: read-out: Activity
[24] = Cytotoxicity against human A549 cells assessed as cell viability at 50 ug/ml after 72 hrs by MTT assay; assay type: cell-based; settings: read-out: Activity
[25] = Cytotoxicity against human A549 cells assessed as cell viability at 10 ug/ml after 72 hrs by MTT assay; assay type: cell-based; settings: read-out: Activity
[26] = Cytotoxicity against human HeLa cells assessed as cell viability at 200 ug/ml after 48 hrs by MTT assay; assay type: cell-based; settings: read-out: Activity
[27] = Cytotoxicity against human HeLa cells assessed as cell viability at 100 ug/ml after 48 hrs by MTT assay; assay type: cell-based; settings: read-out: Activity
[28] = Cytotoxicity against human HeLa cells assessed as cell viability at 50 ug/ml after 48 hrs by MTT assay; assay type: cell-based; settings: read-out: Activity
[29] = Cytotoxicity against human HeLa cells assessed as cell viability at 10 ug/ml after 48 hrs by MTT assay; assay type: cell-based; settings: read-out: Activity
[30] = Cytotoxicity against human HeLa cells assessed as cell viability at 200 ug/ml after 72 hrs by MTT assay; assay type: cell-based; settings: read-out: Activity
[31] = Cytotoxicity against human HeLa cells assessed as cell viability at 100 ug/ml after 72 hrs by MTT assay; assay type: cell-based; settings: read-out: Activity
[32] = Cytotoxicity against human HeLa cells assessed as cell viability at 50 ug/ml after 72 hrs by MTT assay; assay type: cell-based; settings: read-out: Activity
[33] = Cytotoxicity against human HeLa cells assessed as cell viability at 10 ug/ml after 72 hrs by MTT assay; assay type: cell-based; settings: read-out: Activity

Row | Compound | MIC (Micrococcus luteus [1]) [µM] | MIC (Micrococcus luteus [2]) [µM] | MIC (Bacillus subtilis) [µM] | MIC (Bacillus cereus) [µM] | MIC (Staphylococcus aureus [3]) [µM] | MIC (Staphylococcus aureus [4]) [µM] | MIC (Escherichia coli) [µM] | MIC (Pseudomonas aeruginosa [5]) [µM] | MIC (Pseudomonas aeruginosa [6]) [µM] | MIC (Candida albicans [7]) [µM] | MIC (Candida albicans [8]) [µM] | MIC (Candida parapsilosis) [µM] | MIC (Aspergillus brasiliensis) [µM] | MIC (Saccharomyces cerevisiae) [µM] | MIC (Staphylococcus aureus [9]) [µM] | MIC (Staphylococcus aureus [10]) [µM] | MIC (Staphylococcus aureus [11]) [µM] | MIC (Staphylococcus aureus [12]) [µM] | MIC (Staphylococcus aureus [13]) [µM] | IC50 (A549 [14]) [µg/mL] | also measured
1 | Cl.N=C(N)c1ccc(SCCOCCSc2ccc(C(=N)N)cc2)cc1 | 4.3 | 4.3 | 130 | 540 | 130 | 130 | 540 | 2150 | 1070 | 1070 | 1070 | 270 | 2150 | 540 | 1070 | 1070 | 270 | 130 | 130 | 50 | IC50 (A549 [15]): 10 µg/mL; IC50 (HeLa [16]): < 50 µg/mL; IC50 (HeLa [17]): < 50 µg/mL; viability at 48 h, 200 ug/ml [18]: 9.5%; viability at 48 h, 100 ug/ml [19]: 19.8%; viability at 48 h, 50 ug/ml [20]: 48.1%; viability at 48 h, 10 ug/ml [21]: 77.1%; viability at 72 h, 200 ug/ml [22]: 7.9%; viability at 72 h, 100 ug/ml [23]: 8.2%; viability at 72 h, 50 ug/ml [24]: 16.2%; viability at 72 h, 10 ug/ml [25]: 56.4%; viability at 48 h, 200 ug/ml [26]: 10.1%; viability at 48 h, 100 ug/ml [27]: 10.3%; viability at 48 h, 50 ug/ml [28]: 10.4%; viability at 48 h, 10 ug/ml [29]: 76.2%; viability at 72 h, 200 ug/ml [30]: 7.4%; viability at 72 h, 100 ug/ml [31]: 7.4%; viability at 72 h, 50 ug/ml [32]: 7.8%; viability at 72 h, 10 ug/ml [33]: 65.3%
2 | Cl.c1cc(C2=NCCN2)ccc1OCCSCCOc1ccc(C2=NCCN2)cc1 | 9.8 | 9.8 | 240 | 980 | 980 | 980 | 980 | > 1960 | > 1960 | 240 | 240 | 29 | > 1960 | 980 | 980 | 1960 | 1960 | 1960 | 1960 | > 100 | IC50 (A549 [15]): ≥ 50 µg/mL; IC50 (HeLa [16]): > 100 µg/mL; IC50 (HeLa [17]): > 100 µg/mL; viability at 48 h, 200 ug/ml [18]: 16.5%; viability at 48 h, 100 ug/ml [19]: 52.6%; viability at 48 h, 50 ug/ml [20]: 63.6%; viability at 48 h, 10 ug/ml [21]: 80.3%; viability at 72 h, 200 ug/ml [22]: 10.2%; viability at 72 h, 100 ug/ml [23]: 34.4%; viability at 72 h, 50 ug/ml [24]: 49%; viability at 72 h, 10 ug/ml [25]: 59.1%; viability at 48 h, 200 ug/ml [26]: 16.5%; viability at 48 h, 100 ug/ml [27]: 53.5%; viability at 48 h, 50 ug/ml [28]: 68.5%; viability at 48 h, 10 ug/ml [29]: 76.9%; viability at 72 h, 200 ug/ml [30]: 10.7%; viability at 72 h, 100 ug/ml [31]: 41.8%; viability at 72 h, 50 ug/ml [32]: 68.1%; viability at 72 h, 10 ug/ml [33]: 67.7%
3 | CCCCNC(=N)c1ccc(OCCSCCOc2ccc(C(=N)NCCCC)cc2)cc1.Cl | 2.6 | 3.6 | 14 | 450 | 14 | 27 | 110 | > 1810 | > 1810 | 3.6 | 3.6 | 3.6 | 14 | 27 | 230 | 230 | 230 | 110 | 14 | > 100 | IC50 (A549 [15]): ≥ 50 µg/mL; IC50 (HeLa [16]): > 100 µg/mL; IC50 (HeLa [17]): > 100 µg/mL; viability at 48 h, 200 ug/ml [18]: 59.1%; viability at 48 h, 100 ug/ml [19]: 62.3%; viability at 48 h, 50 ug/ml [20]: 68.8%; viability at 48 h, 10 ug/ml [21]: 89.3%; viability at 72 h, 200 ug/ml [22]: 42.2%; viability at 72 h, 100 ug/ml [23]: 48.5%; viability at 72 h, 50 ug/ml [24]: 50.5%; viability at 72 h, 10 ug/ml [25]: 67.6%; viability at 48 h, 200 ug/ml [26]: 25.8%; viability at 48 h, 100 ug/ml [27]: 63.7%; viability at 48 h, 50 ug/ml [28]: 83.4%; viability at 48 h, 10 ug/ml [29]: 91.8%; viability at 72 h, 200 ug/ml [30]: 18.5%; viability at 72 h, 100 ug/ml [31]: 57.2%; viability at 72 h, 50 ug/ml [32]: 88.3%; viability at 72 h, 10 ug/ml [33]: 99%
4 | Cl.N=C(NC1CCCCC1)c1ccc(OCCSCCOc2ccc(C(=N)NC3CCCCC3)cc2)cc1 | 3.2 | 0.81 | 12 | 100 | 3.2 | 3.2 | 100 | > 1630 | > 1630 | 3.2 | 3.2 | 3.2 | 3.2 | 24 | 100 | 200 | 100 | 12 | 12 | > 100 | IC50 (A549 [15]): ≥ 50 µg/mL; IC50 (HeLa [16]): > 100 µg/mL; IC50 (HeLa [17]): > 100 µg/mL; viability at 48 h, 200 ug/ml [18]: 61.4%; viability at 48 h, 100 ug/ml [19]: 63.9%; viability at 48 h, 50 ug/ml [20]: 74.9%; viability at 48 h, 10 ug/ml [21]: 84.6%; viability at 72 h, 200 ug/ml [22]: 54.3%; viability at 72 h, 100 ug/ml [23]: 59.7%; viability at 72 h, 50 ug/ml [24]: 59.2%; viability at 72 h, 10 ug/ml [25]: 69.6%; viability at 48 h, 200 ug/ml [26]: 15.3%; viability at 48 h, 100 ug/ml [27]: 70.8%; viability at 48 h, 50 ug/ml [28]: 95.8%; viability at 48 h, 10 ug/ml [29]: 95.3%; viability at 72 h, 200 ug/ml [30]: 12.3%; viability at 72 h, 100 ug/ml [31]: 66.9%; viability at 72 h, 50 ug/ml [32]: 96.6%; viability at 72 h, 10 ug/ml [33]: 94.6%
